Laboratory results: BindingDB's records for doi:10.1021/jm3017656 (Vanderbilt University School of Medicine, 2013)

These molecules were tested against T1, Androgen receptor (Homo sapiens, UniProt P10275) (assay: Agonist activity at androgen receptor (unknown origin) expressed in HeLa cells co-expressing PSA-(ARE)4-Luc13 assessed as induction of DHT-induced luciferase activity after […] by luciferase reporter gene assay).
T1 sequence (P10275 whole entry): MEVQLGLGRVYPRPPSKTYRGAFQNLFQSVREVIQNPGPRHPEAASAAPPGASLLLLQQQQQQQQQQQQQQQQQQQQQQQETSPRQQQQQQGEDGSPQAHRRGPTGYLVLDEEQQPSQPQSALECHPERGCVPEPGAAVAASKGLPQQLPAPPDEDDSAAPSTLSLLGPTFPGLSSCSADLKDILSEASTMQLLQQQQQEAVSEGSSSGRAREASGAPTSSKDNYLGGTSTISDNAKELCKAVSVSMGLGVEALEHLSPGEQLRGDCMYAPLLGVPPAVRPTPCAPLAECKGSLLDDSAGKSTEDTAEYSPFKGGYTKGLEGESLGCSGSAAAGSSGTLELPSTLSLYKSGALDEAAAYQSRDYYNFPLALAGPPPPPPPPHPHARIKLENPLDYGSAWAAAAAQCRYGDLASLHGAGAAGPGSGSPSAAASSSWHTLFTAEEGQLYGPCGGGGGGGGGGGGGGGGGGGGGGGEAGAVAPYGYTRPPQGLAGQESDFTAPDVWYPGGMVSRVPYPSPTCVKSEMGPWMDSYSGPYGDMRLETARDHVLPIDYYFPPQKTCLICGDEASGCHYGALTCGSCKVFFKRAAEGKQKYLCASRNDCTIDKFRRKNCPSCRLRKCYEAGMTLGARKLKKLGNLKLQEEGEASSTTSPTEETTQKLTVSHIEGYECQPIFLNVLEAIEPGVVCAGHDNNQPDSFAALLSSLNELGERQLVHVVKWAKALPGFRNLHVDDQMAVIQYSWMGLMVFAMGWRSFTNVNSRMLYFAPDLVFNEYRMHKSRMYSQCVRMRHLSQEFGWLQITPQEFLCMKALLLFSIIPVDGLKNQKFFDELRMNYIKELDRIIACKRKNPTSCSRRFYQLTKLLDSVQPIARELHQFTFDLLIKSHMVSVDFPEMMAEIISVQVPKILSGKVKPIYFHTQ

SMILES | EC50 [nM]
COc1ccc2c(c1)c(C)c(CCC(=O)NS(C)(=O)=O)n2C(=O)c1ccc(Cl)cc1 | 0.14
COc1ccc2c(c1)c(CC(=O)NS(=O)(=O)C(F)(F)F)cn2C(=O)c1ccc(Cl)cc1 | 0.1
COc1ccc2c(c1)c(CC(=O)O)c(C)n2C(=O)c1ccc(Cl)cc1 [indometacin] | 0.14
COc1ccc2c(c1)c(C)c(CCC(=O)O)n2C(=O)c1ccc(Cl)cc1 | 0.15
